Data taken from patent publication US20110160279A1, “METHODS FOR TREATMENT AND PREVENTION OF OTOTOXICITY BY siRNA” (BOARD OF TRUSTEES OF SOUTHERN ILLINOIS UNIVERSITY, priority 2007, published 2011).
Like-named read-outs stand apart in the source and are kept apart here.

How the values were obtained:
Bax = Bax protein expression in UB/OC-1 cells; format: cell-based, mouse; details: pretreatment (capsazepine 10 μM; BAPTA-AM 30 min) before cisplatin
Experimental: (§1) The increases in these proteins were attenuated by capsazepine (10 μM), implicating TRPV1 in this process.

p53 = p53 protein expression in UB/OC-1 cells; format: cell-based, mouse; details: pretreatment (capsazepine 10 μM; BAPTA-AM 30 min) before cisplatin
Experimental: as §1

UB/OC-1 = assay: Gentamicin-induced ROS generation by DCF2DA in UB/OC-1 cells; format: cell-based, mouse; details: capsazepine 10 μM or ruthenium red 20 μM for 15 min, then gentamicin (20 μM) 30 min
Experimental: FIG. 5 depicts that inhibition of TRPV1 reduces generation of reactive oxygen species (ROS) by aminoglycosides. UB/OC-1 cultures were pretreated with vehicle (control), capsazepine (10 μM) or ruthenium red (20 μM) for 15 min prior to the administration of vehicle (control) or gentamicin (20 μM) for 30 min and the generation of reactive oxygen species was determined by the fluorescence of 2′,7′-dichlorodihydrofluorescein diacetate (DCF2DA) using confocal microscopy.
In this study, the mouse organ of Corti cell line (UB/OC-1) was used to examine the properties of aminoglycoside-induced ROS generation. For these experiments, cells were grown on coverslips to 60-80% confluency, then pretreated with vehicle (control and gentamicin groups), capsazepine (10 μM) or ruthenium red (20 μM) for 15 min. This was followed by vehicle (control) or gentamicin for 30 min. Cells were then loaded with 2′,7′-dichlorodihydrofluorescein diacetate (DCF2DA) and imaged by confocal microscopy.

UB-OC1 cells [1] = assay: Apoptosis by TUNEL staining in UB-OC1 cells; format: cell-based, mouse; details: for apoptotic cells (TUNEL), of total cells: pretreated 30 min with TRPV1 inhibitor, then cisplatin 20 μM 24 h
Experimental: (§2) Immortalized organ of Corti cells derived from the mouse, UB/OC-1 cells, were obtained from Dr. Matthew Holley (Institute of Molecular Physiology, Addison Building, Western Bank, Sheffield, UK) and cultured in RPMI 1640 supplemented with 10% Fetalclone II (Hyclone, Logan, Utah) serum and penicillin-streptomycin. Cultures were grown in a 33° C. incubator in 10% CO2.
Frag-EL DNA fragmentation kit and H2DCFDA dye was purchased from (Calbiochem, San Diego, Calif.). TRPV1 antibody (Neuromics, Edina, Minn.) and secondary goat anti rabbit antibody was purchased from Santa Cruz Biotechnology (Santa Cruz, Calif.).
as §1

UB-OC1 cells [2] = assay: Cell viability and morphology of UB-OC1 cultures; format: cell-based, mouse
UB-OC1 cells [3] = assay: Cisplatin-induced ROS generation by DCF2DA fluorescence in UB-OC1 cells; format: cell-based, mouse; details: pretreated with AEBSF 100 μM
TRPV1 = format: cell-based, mouse; details: pretreatment with 100 μM AEBSF or 10 μM DPI before cisplatin 2.5 μM
Experimental: as §2
To further study the role of ROS generated via cochlear NADPH oxidases in the induction of TRPV1 in the cochlea, in vitro experiments were performed using the organ of Corti transformed hair cell line, UB/OC1 (Rivolta et al., Proc. R. Sco. Lond., 265, 1595-1603, 1998). […] Immunolabeling was quantitated by fluorescence imaging using a confocal microscope. […] The immunofluorescence in these groups was reduced by 60 and 70%, respectively (FIG. 2B). […] The increases in expression of these genes were inhibited by DPI (10 μM), indicative of a role or NADPH oxidase activity in the induction of these subunits (FIG. 2G).

gp91 = assay: Real time RT-PCR of gp91 mRNA in UB/OC-1 cells; format: cell-based, mouse; details: DPI 10 μM
Experimental: as §2
(§3) RNA was isolated by adding 1 ml TR1 reagent to 100 mg of cochlear or cortical tissue or 0.5 ml TR1 reagent (Sigma, St. Louis, Mo.) per well of each six well plate, according to the manufacturer's instructions.
(§4) Real time reverse transcriptase polymerase chain reaction (RT-PCR): One microgram of total RNA was converted to cDNA using iScript cDNA Synthesis Kit (Bio-Rad, Hercules, Calif.), and qRTPCR was performed as described by (Mukherjea et al, 2006). Gene specific primer pairs were used for the various reactions and mRNA expression levels were normalized to the levels of GAPDH house keeping gene.
(§5) The rodent set of primers and siRNA were based on the homologous sequences in the rat and mouse cDNA sequences. The primers were purchased from Sigma Genosys (St. Louis, Mo.). Purified siRNA duplexes were purchased from Qiagen (Valencia, Calif.).

NADPH oxidase = details: 10 μM, cochlear extracts, Lucigenin probe
Experimental: In order to determine whether noise exposure increased the activity of NADPH oxidase in the chinchilla cochlea, a major source of reactive oxygen species (ROS), the activity of NADPH oxidase in cytosolic preparations from the cochlea was examined. The activity of NAD(P)H oxidase was determined using 50 μg protein from cochlear extracts incubated with 100 μM β-NAD(P)H in a total volume of 200 μl of Hank's HEPES buffer (pH 7.4). The assay was initiated by the addition of 50 μM N,N′-dimethyl-9,9′-biacridinium dinitrate (Lucigenin) (Sigma, St. Louis, Mo.) to the incubation mixture. Samples were counted immediately using a table top luminometer (Berthold Detection Systems FB Luminometer, Zylux Corp., Maryville, Tenn.) with sampling time every 6 sec. Samples were counted over a period of 5 min and the fluorescence recorded over 2 min of stable readings were averaged for that samples. Samples were run in duplicate and the NAD(P)H oxidase activity was normalized to the protein concentrations in each sample.

Rac1 = assay: Real time RT-PCR of Rac1 mRNA in UB/OC-1 cells; format: cell-based, mouse; details: DPI 10 μM
Experimental: as §2, §3, §4, §5

NOX3 mRNA [4] = assay: Real time RT-PCR of NOX3 mRNA in UB/OC-1 cells; format: cell-based, mouse; details: DPI 10 μM
Experimental: as §2, §3, §4, §5

NOX3 mRNA [5] = assay: Real time RT-PCR of NOX3 mRNA in rat cochlea; format: in vivo
Experimental: (§6) Animal procedures and sample collection: Male Wistar rats were used for this study. Pre-ABR's were performed 2-3 days before round window application of siTRPV1 or PBS. […] The cochleas were dissected and used for the preparation of total RNA or total protein extracts, or perfused with 2.5% glutaraldehyde for morphological studies by Scanning Electron Microscopy (SEM's) or 4% paraformaldehyde for immunocytochemistry.
as §3, §4, §5

TRPV1 mRNA = assay: Real time RT-PCR of TRPV1 mRNA in rat cochlea; format: in vivo
Experimental: as §6, §3, §4, §5

SMILES | effect on cisplatin-induced increase in Bax (Bax) | effect on cisplatin-induced increase in p53 (p53) | effect on ROS generation of the gentamicin group (UB/OC-1) | effect on cell apoptosis compared to vehicle-treated control (UB-OC1 cells [1]) | apoptotic cells (TUNEL), of total cells (UB-OC1 cells [1]) | reduction of TRPV1 immunofluorescence (TRPV1) | other results
CC(=O)OCOC(=O)CN(CC(=O)OCOC(C)=O)c1ccccc1OCCOc1ccccc1N(CC(=O)OCOC(C)=O)CC(=O)OCOC(C)=O [BAPTA-AM] | substantial reduction | down-regulated the expression of these pro-apoptotic genes to control levels |  |  |  |  | 
Oc1cc2c(cc1O)CN(C(=S)NCCc1ccc(Cl)cc1)CCC2 [capsazepine] | attenuated | attenuated | suppressed | Neither capsazepine nor ruthenium red alone had any significant effect | ~7% |  | 
NCCc1ccc(S(=O)(=O)F)cc1 [AEBSF] |  |  |  |  |  | 60% | effect on cell viability over a 24 h period (UB-OC1 cells [2]; 100 μM AEBSF or 10 μM DPI): did not significantly affect cell viability; effect on cisplatin-induced increase in ROS generation (UB-OC1 cells [3]): abolished
N.N.N.N.N.N.N.N.N.N.N.N.N.N.[Cl-].[Cl-].[Cl-].[Cl-].[Cl-].[Cl-].[O-2].[O-2].[Ru+3].[Ru+3].[Ru+4] [ruthenium red] |  |  | suppressed | Neither capsazepine nor ruthenium red alone had any significant effect | ~7% |  | 
c1ccc2c(c1)[I+]c1ccccc1-2 [DPI, diphenyleneiodonium] |  |  |  |  |  | 70% | effect on cisplatin-induced increase in gp91 expression (gp91): inhibited; effect on NADPH oxidase activity (NADPH oxidase): blockade of enzyme activity; effect on cell viability over a 24 h period (UB-OC1 cells [2]): did not significantly affect cell viability; effect on cisplatin-induced increase in Rac1 expression (Rac1): inhibited; effect on cisplatin-induced increase in NOX3 expression (NOX3 mRNA [4]): inhibited
O=C(O)CCCC[C@@H]1CCSS1 (racemic) [lipoic acid] |  |  |  |  |  |  | effect on basal expression of NOX3 (NOX3 mRNA [5]; lipoic acid alone): significantly reduced; effect on the increase in NOX3 by cisplatin (NOX3 mRNA [5]; lipoic acid pretreatment, cisplatin 72 hrs): attenuated; effect on basal expression of TRPV1 (TRPV1 mRNA; rat cochlea, lipoic acid alone, not statistically significant): tendency to reduce basal expression of TRPV1; effect on cisplatin-induced TRPV1 expression in vivo (TRPV1 mRNA; rats pretreated with lipoic acid before cisplatin, 72 hrs): completely abolished
